Results published in paper PMC5684143, “New melanocortin-like peptide of E. coli can suppress inflammation via the mammalian melanocortin-1 receptor (MC1R): possible endocrine-like function for microbes of the gut” (NPJ Biofilms and Microbiomes, 2017).
Values joined by “and” are separate entries in the source; they are usually repeats but may differ in a detail not shown here. Equal entries are not always repeated.

Experiments:
RAW 264.7 cells [1] = test: Cyclic-AMP production in RAW 264.7 cells; type: cell-based, murine; settings: 30 min, 37 °C, 1 mM IBMX, four experiments per peptide, each value from separate experiment(s)
Method: RAW 264.7 cells were grown to confluence in culture plates, harvested by classical methods, and then seeded onto 48-well plates (1 × 10^6/ml). Cells were incubated with peptide at 37 °C in Opti-MEM I serum-free medium containing 1 mM 3-isobutyl-1-methylxanthine. At 30 min, cells were lysed in the original wells. The lysates were extracted from the wells, and cyclic-AMP measurements carried out using the Biotrak kit (cyclic-AMP Biotrak Enzymeimmunoassay System, Amersham Biosciences) including a standard cyclic-AMP curve as recommended by the suppliers.[35]
RAW 264.7 cells were incubated with peptides for 30 minutes at 37 degrees. Cell lysates were extracted and c-AMP measurements carried out using a commercial kit [c-AMP biotrack-immunoassay system, Amersham Biosciences] with a c-AMP standard curve as recommended by the suppliers. […] The only experiment with ACTH is shown above. (Effects of LPS at 4 nanograms per ml. or of HMGB1 at 0.1 µg. per ml. on ligand-stimulated c-AMP accumulation were quite modest and inconsistent). […]

RAW 264.7 cells [2] = test: LPS-induced TNF release by RAW 264.7 cells; type: cell-based, murine; settings: for TNF-accumulated (% of control): peptide 10^-12 M, LPS 10 ng/ml, TNF by ELISA at 6 h, LPS alone set at 100%, mean ± SEM
Method: Murine macrophage-like RAW 264.7 cells were obtained from American Type Culture Collection, and were grown in Dulbecco’s Modified Eagle’s Medium (DMEM, Life Technologies) containing 10% (vol/vol) heat-inactivated fetal bovine serum (FBS, Hyclone Lab. Inc.), penicillin 100 U/ml, and streptomycin 100 μg/ml (BioWhittaker Inc.). Cells were suspended in medium and incubated in 24-well or 48-well tissue-culture plates overnight in a humidified incubator (37 °C, 5% CO2). Growth medium was removed and replaced by Opti-MEM I serum-free medium (Life Technologies) overnight. In the experiments, cell monolayers were stimulated with HMGB1 or LPS, in the absence or presence of MECO-1 or alpha-MSH; cell-free supernatants were assayed for TNF by ELISA or HMGB1 by western blotting.
Concentrations of TNF and IL-6 were each determined using a commercially available enzyme-linked immunosorbent assay (ELISA) kit (R&D System Inc.) as previously described.[34] The levels of TNF or IL-6 were calculated with reference to standard curves.
Fig. 2 Cytokine-induced TNF release inhibited by MECO-1. a Lipopolysaccharide (LPS), derived from the cell wall of Gram-negative bacteria, is a TLR4 and TLR2 agonist. RAW 264.7 cells were treated with MECO-1 and LPS simultaneously and incubated overnight. Supernatants were tested for TNF with ELISA. b Poly I:C, synthetic double stranded RNA, is recognized by TLR3. RAW 264.7 cells were pre-treated with MECO-1 and then stimulated with Poly I:C. Supernatants were tested in ELISA by TNF. c Peptidoglycan (PGN), another TLR2 agonist, is ubiquitous in the cell wall of bacteria. RAW 264.7 cells were pre-treated with MECO-1 and then stimulated with PGN; after overnight stimulation, supernatants were harvested and tested for TNF ELISA. d HMGB-1. Each vertical bar is the mean of three experimental points, using HMGB-1 to induce TNF release. Three sets of three experiments were used for the measurement of inhibition
Fig. 5 a Bioactive analogues of MECO-1. Murine macrophage-like RAW 264.7 cells were incubated with lipopolysaccharide (LPS, 4 ng/ml) in the absence or presence of MECO-1 or BACTN or BACFR, synthetic peptides based on the C-termini of EF-G of Bacteroides thetaiotamicron and Bacteroides fragilis. EFG-2 refers to human mitochondrial EFG-2 (mtEFG2). For Bacteroides thetaiotamicron, we used a 38-mer consisting of residues 681–703 shown in Fig. 4c followed by 704–718 QDKLIKDFEAKQTEE. For Bacteroides fragilis, we used a 33-mer consisting of residues, 681–703 shown in Fig. 4c followed by 704–713 = QDKLIKDFES. At 6 h after stimulation, aliquots of cell-free medium were examined. In other experiments, the synthetic peptide based on human mitochondrial EF-G1 (mtEFG1) gave results indistinguishable from EF-G2 (data not shown). The precise structure of the synthetic peptides is indicated in the text (see section “Results” and Table 1). Shown is a representative experiment.

alpha-melanocyte-stimulating hormone [alpha-MSH]
peptide concentration at which statistically significant stimulation of cAMP was noted (single experiments) (RAW 264.7 cells [1]): 10^-9 M and 10^-10 M | peptide concentration at which attenuation of LPS-induced TNF-alpha release was observed (RAW 264.7 cells [2]; RAW 264.7 cells, overnight incubation, ELISA): 10^−15 M | TNF-accumulated (% of control) (RAW 264.7 cells [2]; agouti 0 pM, RAW 264.7 cells): 67.05 ± 10.2 % of control | TNF-accumulated (% of control) (RAW 264.7 cells [2]; agouti 10 pM, RAW 264.7 cells): 132.6 ± 4.9 % of control | TNF-accumulated (% of control) (RAW 264.7 cells [2]; agouti 10^3 pM, RAW 264.7 cells): 138.6 ± 12.4 % of control | TNF-accumulated (% of control) (RAW 264.7 cells [2]; agouti 10^5 pM, RAW 264.7 cells): 122.2 ± 4.3 % of control | inhibition of LPS-induced TNF-alpha release (valley) (RAW 264.7 cells [2]; at 10^−11–10^−10 M peptide, attenuation lost above 10^−10 M): ~90%
